# According to the SangsterLogP compilation:
row,Structure (SMILES),logP
1,CCOc1ncc(-c2ccncc2)cc1C#N,2.59
2,CC(O)COc1ncc(-c2ccncc2)cc1C#N (centres undefined),1.65
3,N#Cc1cc(-c2ccncc2)cnc1OCCOCCO,1.5
4,N#Cc1cc(-c2ccncc2)cnc1OCCCO,1.63
5,N#Cc1cc(-c2ccncc2)cnc1OCC(O)CO (centres undefined),0.76
6,COCCOc1ncc(-c2ccncc2)cc1C#N,1.96
7,Cc1nc(OCCO)c(C#N)cc1-c1ccccc1,3.23
8,N#Cc1cc(-c2ccncc2)cnc1Oc1ccccc1,3.09
9,COCCOc1nc(C)c(-c2ccccc2)cc1C#N,3.74

# Results, then the compound that gave them:
row,logP,Structure (SMILES)
1,2.4,COCCOc1nc(C)c(-c2ccncc2)cc1C#N
2,2.41,COc1nc(C)c(-c2ccncc2)cc1C#N
3,1.81,Cc1nc(OCCOCCO)c(C#N)cc1-c1ccncc1
4,2.02,COc1ncc(-c2ccncc2)cc1C#N
5,1.83,Cc1nc(OCCO)c(C#N)cc1-c1ccncc1
